# Measurements published in PubChem BioAssay (NCI).
#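 Five compound concentrations were applied to cells in 96-well plates for 48 hours; endpoints were derived by simple linear interpolation of the resulting dose-response curve. At the GI50, growth is halved. TGI is the concentration that stops growth completely.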
# Experiments:
# Test in all cases: NCI-60 cell line screen, 48 h
# HOP-62 NSCLC = system: HOP-62 NSCLC
# UO-31 renal = system: UO-31 renal
# SNB-19 CNS = system: SNB-19 CNS
# COLO 205 colon = system: COLO 205 colon
# SF-268 CNS = system: SF-268 CNS
# SK-MEL-2 melanoma = system: SK-MEL-2 melanoma
# NCI-H522 lung = system: NCI-H522 lung
# MALME-3M melanoma = system: MALME-3M melanoma
# BT-549 breast = system: BT-549 breast
# EKVX NSCLC = system: EKVX NSCLC
# SW-620 colon = system: SW-620 colon
# KM12 colon = system: KM12 colon
# MDA-MB-435 = system: MDA-MB-435
# M14 melanoma = system: M14 melanoma
# SF-295 CNS = system: SF-295 CNS
# T-47D breast = system: T-47D breast
# NCI-H460 lung = system: NCI-H460 lung
# HT29 colon = system: HT29 colon
# SK-MEL-5 melanoma = system: SK-MEL-5 melanoma
# A498 renal = system: A498 renal
# RXF 393 renal = system: RXF 393 renal
# CCRF-CEM leukemia = system: CCRF-CEM leukemia
# SNB-75 CNS = system: SNB-75 CNS
# TK-10 renal = system: TK-10 renal
# HCC-2998 colon = system: HCC-2998 colon
# UACC-257 melanoma = system: UACC-257 melanoma
# K-562 leukemia = system: K-562 leukemia
# HOP-92 NSCLC = system: HOP-92 NSCLC
# OVCAR-4 ovarian = system: OVCAR-4 ovarian
# SK-MEL-28 melanoma = system: SK-MEL-28 melanoma
# ACHN renal = system: ACHN renal
# MDA-MB-231 breast = system: MDA-MB-231 breast
# RPMI-8226 leukemia = system: RPMI-8226 leukemia
# OVCAR-5 ovarian = system: OVCAR-5 ovarian
# PC-3 prostate = system: PC-3 prostate
# DU-145 prostate = system: DU-145 prostate
# UACC-62 melanoma = system: UACC-62 melanoma
# HL-60(TB) leukemia = system: HL-60(TB) leukemia
# SR leukemia = system: SR leukemia
# HS 578T breast = system: HS 578T breast
# NCI-H23 lung = system: NCI-H23 lung
# NCI-H226 lung = system: NCI-H226 lung
# HCT-15 colon = system: HCT-15 colon
# MCF7 breast = system: MCF7 breast
# SN12C renal = system: SN12C renal
# SF-539 CNS = system: SF-539 CNS
# CAKI-1 renal = system: CAKI-1 renal
# IGROV1 ovarian = system: IGROV1 ovarian
structure (smiles),measurement,setting,value
NCCCNc1nc2ccccc2c2c(=O)c3cccc(F)c3sc12,GI50,HOP-62 NSCLC,1500 nM
same,TGI,HOP-62 NSCLC,3150 nM
same,GI50,UO-31 renal,1010 nM
same,TGI,UO-31 renal,2240 nM
same,GI50,SNB-19 CNS,1570 nM
same,TGI,SNB-19 CNS,3000 nM
same,GI50,COLO 205 colon,1600 nM
same,TGI,COLO 205 colon,3690 nM
same,GI50,SF-268 CNS,1470 nM
same,TGI,SF-268 CNS,3350 nM
same,GI50,SK-MEL-2 melanoma,1770 nM
same,TGI,SK-MEL-2 melanoma,3660 nM
same,GI50,NCI-H522 lung,1610 nM
same,TGI,NCI-H522 lung,3280 nM
same,GI50,MALME-3M melanoma,1570 nM
same,TGI,MALME-3M melanoma,3050 nM
same,GI50,BT-549 breast,11500 nM
same,TGI,BT-549 breast,29600 nM
same,GI50,EKVX NSCLC,1500 nM
same,TGI,EKVX NSCLC,3000 nM
same,GI50,SW-620 colon,1100 nM
same,TGI,SW-620 colon,2490 nM
same,GI50,KM12 colon,1610 nM
same,TGI,KM12 colon,3040 nM
same,GI50,MDA-MB-435,1770 nM
same,TGI,MDA-MB-435,3390 nM
same,GI50,M14 melanoma,1800 nM
same,TGI,M14 melanoma,3560 nM
same,GI50,SF-295 CNS,1740 nM
same,TGI,SF-295 CNS,3190 nM
same,GI50,T-47D breast,1580 nM
same,TGI,T-47D breast,3740 nM
same,GI50,NCI-H460 lung,493 nM
same,TGI,NCI-H460 lung,1770 nM
same,GI50,HT29 colon,1250 nM
same,TGI,HT29 colon,2690 nM
same,GI50,SK-MEL-5 melanoma,1690 nM
same,TGI,SK-MEL-5 melanoma,3080 nM
same,GI50,A498 renal,1670 nM
same,TGI,A498 renal,3100 nM
same,GI50,RXF 393 renal,1430 nM
same,TGI,RXF 393 renal,2810 nM
same,GI50,CCRF-CEM leukemia,1420 nM
same,TGI,CCRF-CEM leukemia,4160 nM
same,GI50,SNB-75 CNS,1610 nM
same,TGI,SNB-75 CNS,3210 nM
same,GI50,TK-10 renal,1940 nM
same,TGI,TK-10 renal,3470 nM
same,GI50,HCC-2998 colon,1640 nM
same,TGI,HCC-2998 colon,3410 nM
same,GI50,UACC-257 melanoma,1970 nM
same,TGI,UACC-257 melanoma,3810 nM
same,GI50,K-562 leukemia,1360 nM
same,TGI,K-562 leukemia,4150 nM
same,GI50,HOP-92 NSCLC,1290 nM
same,TGI,HOP-92 NSCLC,3390 nM
same,GI50,OVCAR-4 ovarian,1760 nM
same,TGI,OVCAR-4 ovarian,3580 nM
same,GI50,SK-MEL-28 melanoma,1770 nM
same,TGI,SK-MEL-28 melanoma,3230 nM
same,GI50,ACHN renal,1200 nM
same,TGI,ACHN renal,2430 nM
same,GI50,MDA-MB-231 breast,1280 nM
same,TGI,MDA-MB-231 breast,2750 nM
same,GI50,RPMI-8226 leukemia,2030 nM
same,TGI,RPMI-8226 leukemia,4750 nM
same,GI50,OVCAR-5 ovarian,1600 nM
same,TGI,OVCAR-5 ovarian,3010 nM
same,GI50,PC-3 prostate,1670 nM
same,TGI,PC-3 prostate,3260 nM
same,GI50,DU-145 prostate,1230 nM
same,TGI,DU-145 prostate,2530 nM
same,GI50,UACC-62 melanoma,1670 nM
same,TGI,UACC-62 melanoma,3130 nM
same,GI50,HL-60(TB) leukemia,1880 nM
same,TGI,HL-60(TB) leukemia,3950 nM
same,GI50,SR leukemia,1570 nM
same,TGI,SR leukemia,> 100000 nM
same,GI50,HS 578T breast,1720 nM
same,TGI,HS 578T breast,3970 nM
same,GI50,NCI-H23 lung,1540 nM
same,TGI,NCI-H23 lung,3030 nM
same,GI50,NCI-H226 lung,1450 nM
same,TGI,NCI-H226 lung,3060 nM
same,GI50,HCT-15 colon,1130 nM
same,TGI,HCT-15 colon,2390 nM
same,GI50,MCF7 breast,1010 nM
same,TGI,MCF7 breast,2400 nM
same,GI50,SN12C renal,1280 nM
same,TGI,SN12C renal,2700 nM
same,GI50,SF-539 CNS,1590 nM
same,TGI,SF-539 CNS,2970 nM
same,GI50,CAKI-1 renal,1420 nM
same,TGI,CAKI-1 renal,2750 nM
same,GI50,IGROV1 ovarian,798 nM
same,TGI,IGROV1 ovarian,2220 nM
